Reference: US6491948B1, “Composition comprising isoquercetin and ascorbic acid in a sustained release form” (Merck Patent GmbH, priority 1999, dated 2002)

Tests used:
[1] = in vivo; cited from earlier work
[2] = in vivo; cited from earlier work; remark: listed apart in the source
[3] = passage of the blood-brain barrier / entry into the brain; type: in vivo; conditions: isoquercetin given one hour before ascorbate
Source text: The second form of ascorbic acid, semidehydroascorbic acid (ascorbate free radical) participates in univalent redox systems that is in the antioxidant defense activity. See Bors, W. et al. (1995), Interaction of Flavonoids with Ascorbate and Determination of their Univalent Redox Potentials: a Pulse Radiolysis Study, Free Radical Biology and Medicine, vol. 19, No. 1, 45-52. This means semidehydroascorbic acid participates most likely in free radical scavenging activities. According to the article Gordon, M. H. (1996), Dietary Antioxidants in Disease Prevention, Natural Product Reports, pp. 265-273, “ascorbate appears to be the most important non-protein antioxidant in plasma” p. 270. […] See Agus, D. B. et al. (1997), Vitamin C crosses the blood-brain barrier in the oxidized form through the glucose transporters, J. Clin. Invest., 100 (11) 2842-2848. After entering the brain dehydroascorbic acid is reduced and retained as ascorbic acid.

[4] = pharmacokinetic studies: absorption and bioavailability; set-up: species or system man; conditions: in vivo
Source text: Absorbed isoquercetin interacts with ascorbate keeping it in the reduced state and, at the same time, is being protected by ascorbate by being kept in the oxidized state (Yamasaki, H. et al. (1997), Flavanoid-peroxidase reaction as a detoxification mechanism of plant cells against H2O2).

[5] = man; cited from earlier work

SMILES	crossing of the blood-brain barrier [1]	concentration in brain relative to blood serum [2] [times]	entry into the brain and reduction of dehydroascorbate [3]	absorption rate and bioavailability [4]	absorption compared with rutin and quercetin [5]
O=C1O[C@H]([C@@H](O)CO)C(O)=C1O [Ascorbic acid, ascorbic acid]	not able to cross blood-brain barrier	10			
O=C1O[C@H]([C@@H](O)CO)C(=O)C1=O [dehydroascorbic acid]	readily enters the brain				
O=c1c(O[C@@H]2O[C@H](CO)[C@@H](O)[C@H](O)[C@H]2O)c(-c2ccc(O)c(O)c2)oc2cc(O)cc(O)c12 [isoquercetin, quercetin-3-O-glucoside]			enters the brain and reduces dehydroascorbate	excellent absorption rate and bioavailability	absorbed better than rutin and quercetin
